# Patent US20250134874A1, “PHARMACEUTICAL FORMULATIONS COMPRISING 3-({[(4R)-7-{METHYL[4-(PROPAN-2-YL)PHENYL]AMINO}-3,4-DIHYDRO-2H-1-BENZOPYRAN-4-YL]METHYL}AMINO)PYRIDINE-4-CARBOXYLIC ACID” (TACHYON THERAPEUTICS, INC., priority 2021, published 2025)
# System: 301 cancer cell lines from different tumor types (OncoPanel; HD Biosciences)
# Test: 2D cell viability inhibition assay (CellTiter-Glo) in cancer cell line panel
# Assay type: cell-based
# Conditions: Homo sapiens
# Description: In a larger screening study, compound 1 was evaluated across a broad cancer cell line panel (OncoPanel; HD Biosciences) composed of 301 cancer cell lines from different tumor types.
# 2D cell viability inhibition assays were performed in multiwell plates seeded with cells from the panel. After seeding, the plates were cultured overnight in a humidified incubator at 37° C. to promote adherence. Assays were initiated in individual wells by adding either DMSO as a vehicle control, growth media as a blank, or serially diluted compound 1 (10 μM to 0.0005 μM with 1:3 serial dilution). Cultures were incubated for 168 hours after which the number of viable cells in each test well was assessed using the CellTiter-Glo® Luminescent Cell Viability Assay. Luminescence readouts were performed using an EnVision® Multilabel Reader and the compound 1 readouts were normalized to the DMSO control readouts, expressed as a percent of the control. Outliers were flagged out by visual inspection. Percent of control was plotted against the corresponding compound 1 concentration and the absolute IC50 value was determined using four-parameter logistic non-linear regression as the concentration where inhibition was 50% of the control. For maximum inhibition <50%, the absolute IC50 was reported as >10. In addition to EC50 and IC50, AUC was determined and was normalized to the area corresponding to theoretical no-inhibition (the rectangular area defined by the compound dose range and 0 to 100 in y). Emax was recorded as the minimum in y with the compound dose range. For those cell lines where Emax>40, EC50 was manually set to 10 μM. A hierarchical clustering algorithm based on Euclidean distance between the standardized input values and “Ward.D” method as implemented in R hclust function was used to visualize the compound 1 cellular potency data. The sensitive/moderate/resistant calls for each cell line was determined by visually inspecting the resulting clustering dendrogram. All the analyses were done in R Core Team.
compound,measurement,setting,value
"CC(C)c1ccc(N(C)c2ccc3c(c2)OCC[C@H]3CNc2cnccc2C(=O)O)cc1 [Compound 1, 3-({[(4R)-7-{methyl[4-(propan-2-yl)phenyl]amino}-3,4-dihydro-2H-1-benzopyran-4-yl]methyl}amino)pyridine-4-carboxylic acid]",EC50,"NCI-H1944, NCIH1944 cell line",≥ 10000 nM
same,IC50,"NCI-H1944, NCIH1944 cell line",16.3 nM
same,EC50,"NCI-H1975, NCIH1975 cell line",25.5 nM
same,IC50,"NCI-H1975, NCIH1975 cell line",34.8 nM
same,IC50,"NCI-H2009, 168 h, NCIH2009, lung, adenocarcinoma, 168 hours",> 10000 nM
same,EC50,"NCI-H2081, NCIH2081 cell line",1.46 nM
same,IC50,"NCI-H2081, NCIH2081 cell line",2.57 nM
same,EC50,"NCI-H2087, NCIH2087 cell line",2.58 nM
same,IC50,"NCI-H2087, NCIH2087 cell line",3.56 nM
same,EC50,"NCI-H2122, NCIH2122 cell line",16.7 nM
same,IC50,"NCI-H2122, NCIH2122 cell line",23.9 nM
same,EC50,"NCI-H2171, NCIH2171 cell line",≥ 10000 nM
same,IC50,"NCI-H2171, NCIH2171 cell line",> 10000 nM
same,IC50,"NCI-H2228, NCIH2228 cell line",179 nM
same,EC50,"NCI-H2286, NCIH2286 cell line",2.53 nM
same,IC50,"NCI-H2286, NCIH2286 cell line",3.51 nM
same,EC50,"NCI-H2291, NCIH2291 cell line",7.55 nM
same,IC50,"NCI-H2291, NCIH2291 cell line",8.4 nM
same,IC50,"NCI-H2347, NCIH2347 cell line",13.1 nM
same,EC50,"NCI-N87, NCIN87 cell line",3.94 nM
same,IC50,"NCI-N87, NCIN87 cell line",4.29 nM
same,EC50,"NOMO-1, NOMO1 cell line",3.92 nM
same,IC50,"NOMO-1, NOMO1 cell line",5.01 nM
same,EC50,"NUGC-3, NUGC3 cell line",5.63 nM
same,IC50,"NUGC-3, NUGC3 cell line",7.72 nM
same,EC50,"NUGC-4, NUGC4 cell line",6.62 nM
same,IC50,"NUGC-4, NUGC4 cell line",10.6 nM
same,IC50,"ONS-76, 168 h, ONS76, central nervous system, NS, 168 hours",> 10000 nM
same,IC50,"OS-RC-2, OSRC2 cell line",> 10000 nM
same,IC50,"OVCAR-3, 168 h, NIHOVCAR3, ovary, NS, 168 hours",> 10000 nM
same,EC50,"P31-FUJ, P31FUJ cell line",2.43 nM
same,IC50,"P31-FUJ, P31FUJ cell line",4.32 nM
same,EC50,"PANC-1, PANC1 cell line",51.5 nM
same,IC50,"PANC-1, PANC1 cell line",68.6 nM
same,EC50,"PC-3, PC3 cell line",11.8 nM
same,IC50,"PC-3, PC3 cell line",14.5 nM
same,EC50,"PF-382, PF382 cell line",1.89 nM
same,IC50,"PF-382, PF382 cell line",3.69 nM
same,EC50,"PLC-PRF-5, PLCPRF5 cell line",16.4 nM
same,IC50,"PLC-PRF-5, PLCPRF5 cell line",28 nM
same,IC50,"RCM-1, RCM1 cell line",> 10000 nM
same,EC50,"RD, RD cell line",4.79 nM
same,IC50,"RD, RD cell line",9.29 nM
same,EC50,"REH, REH cell line",1.32 nM
same,IC50,"REH, REH cell line",1.21 nM
same,EC50,"RKO, RKO cell line",8.5 nM
same,IC50,"RKO, RKO cell line",11.5 nM
same,EC50,"RL, RL cell line",1.88 nM
same,IC50,"RL, RL cell line",2.99 nM
same,IC50,"RPMI-7951, 168 h, RPMI7951, skin, NS, 168 hours",> 10000 nM
same,EC50,"RPMI-8226, RPMI8226 cell line",10.4 nM
same,IC50,"RPMI-8226, RPMI8226 cell line",12.5 nM
same,EC50,"RT112/84, RT11284 cell line",4.14 nM
same,IC50,"RT112/84, RT11284 cell line",4.43 nM
same,IC50,"SAOS-2, 168 h, SAOS2, bone, NS, 168 hours",> 10000 nM
same,EC50,"SCC-4, SCC4 cell line",5.57 nM
same,IC50,"SCC-4, SCC4 cell line",10.5 nM
same,IC50,"SCC-9, 168 h, SCC9, upper aerodigestive tract, squamous cell carcinoma, 168 hours",> 10000 nM
same,IC50,"SCC-15, 168 h, SCC15, upper aerodigestive tract, squamous cell carcinoma, 168 hours",> 10000 nM
same,IC50,"SCC-25, 168 h, SCC25, upper aerodigestive tract, squamous cell carcinoma, 168 hours",> 10000 nM
same,EC50,"SCaBER, SCABER cell line",8.93 nM
same,IC50,"SCaBER, SCABER cell line",15.2 nM
same,EC50,"SH-SY5Y, SHSY5Y cell line",4.32 nM
same,IC50,"SH-SY5Y, SHSY5Y cell line",13.5 nM
same,EC50,"SK-BR-3, SKBR3 cell line",4.32 nM
same,IC50,"SK-BR-3, SKBR3 cell line",7.14 nM
same,EC50,"SK-CO-1, SKCO1 cell line",≥ 10000 nM
same,IC50,"SK-CO-1, SKCO1 cell line",30.6 nM
same,IC50,"SK-HEP1, 168 h, SKHEP1, liver, adenocarcinoma, 168 hours",> 10000 nM
same,EC50,"SK-LU-1, SKLU1 cell line",8.49 nM
same,IC50,"SK-LU-1, SKLU1 cell line",40 nM
same,IC50,"SK-MEL3, SKMEL3 cell line",472 nM
same,EC50,"SK-MEL-1, SKMEL1 cell line",0.536 nM
same,IC50,"SK-MEL-1, SKMEL1 cell line",9.24 nM
same,EC50,"SK-MEL-2, SKMEL2 cell line",27 nM
same,IC50,"SK-MEL-2, SKMEL2 cell line",140 nM
same,EC50,"SK-MEL-5, SKMEL5 cell line",14.8 nM
same,IC50,"SK-MEL-5, SKMEL5 cell line",16.8 nM
same,IC50,"SK-MEL-24, 168 h, SKMEL24, skin, NS, 168 hours",> 10000 nM
same,EC50,"SK-MEL-28, SKMEL28 cell line",5.63 nM
same,IC50,"SK-MEL-28, SKMEL28 cell line",5.56 nM
same,EC50,"SK-MES-1, SKMES1 cell line",24.3 nM
same,IC50,"SK-MES-1, SKMES1 cell line",47.5 nM
same,IC50,"SK-N-SH, 168 h, SKNSH, autonomic ganglia, NS",> 10000 nM
same,IC50,"SK-OV-3, 168 h, SKOV3, ovary, adenocarcinoma, 168 hours",> 10000 nM
same,EC50,"SNB-19, SNB19 cell line",7.01 nM
same,IC50,"SNB-19, SNB19 cell line",11.6 nM
same,EC50,"SNU-5, SNU5 cell line",82.4 nM
same,IC50,"SNU-5, SNU5 cell line",146 nM
same,EC50,"SNU-16, SNU16 cell line",3.69 nM
same,IC50,"SNU-16, SNU16 cell line",4.22 nM
same,EC50,"SNU-398, SNU398 cell line",9.63 nM
same,IC50,"SNU-398, SNU398 cell line",18 nM
same,IC50,"SNU-C1, 168 h, SNUC1, large intestine, adenocarcinoma, 168 hours",> 10000 nM
same,IC50,"SUP-T1, SUPT1 cell line",3330 nM
same,EC50,"SW48, SW48 cell line",≥ 10000 nM
same,IC50,"SW48, SW48 cell line",50 nM
same,EC50,"SW480, SW480 cell line",7.73 nM
same,IC50,"SW480, SW480 cell line",9.79 nM
same,EC50,"SW780, SW780 cell line",11.8 nM
same,IC50,"SW780, SW780 cell line",13 nM
same,IC50,"SW837, 168 h, SW837, large intestine, adenocarcinoma, 168 hours",> 10000 nM
same,IC50,"SW1417, 168 h, SW1417, large intestine, adenocarcinoma, 168 hours",> 10000 nM
same,EC50,"SW1463, SW1463 cell line",9.18 nM
same,IC50,"SW1463, SW1463 cell line",9.24 nM
same,EC50,"SW1710, SW1710 cell line",27.3 nM
same,IC50,"SW1710, SW1710 cell line",63.3 nM
same,IC50,"SW1990, SW1990 cell line",> 10000 nM
same,EC50,"SW-620, SW620 cell line",26.3 nM
same,IC50,"SW-620, SW620 cell line",29.3 nM
same,EC50,"T84, T84 cell line",10.1 nM
same,IC50,"T84, T84 cell line",21 nM
same,EC50,"TALL-1, TALL1 cell line",0.895 nM
